Results published in the supplement of paper PMC10307832.

What was measured:
Experiment in all cases: relative viability (nuclei count vs DMSO), 5 days (fraction); higher = more cells survive
[1] = compound: C[C@@H](N)c1ccc(C(=O)Nc2ccnc3[nH]ccc23)cc1 + O=C(c1cc(Cc2n[nH]c(=O)c3ccccc23)ccc1F)N1CCN(C(=O)C2CC2)CC1 [Olaparib] (partner 8 µM)
Summary of the method: (§1)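 Each reported value is a median over duplicate plates. It expresses relative viability: treated-well nuclei count divided by vehicle-well nuclei count. Lung cancer cell lines in 1536-well plates were dosed by pin tool a day after seeding, alone with one drug or with a fixed anchor-drug dose plus five library-drug doses (not always all listed) in √10 steps, and nuclei were counted after 5 days.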

Tanzisertib + Decitabine = compound: O[C@H]1CC[C@H](Nc2ncc3nc(Nc4c(F)cc(F)cc4F)n([C@H]4CCOC4)c3n2)CC1 [Tanzisertib] + Nc1ncn([C@H]2C[C@H](O)[C@@H](CO)O2)c(=O)n1 [Decitabine] (partner 2 µM)
Summary of the method: as §1

Tanzisertib + Lapatinib = compound: O[C@H]1CC[C@H](Nc2ncc3nc(Nc4c(F)cc(F)cc4F)n([C@H]4CCOC4)c3n2)CC1 [Tanzisertib] + CS(=O)(=O)CCNCc1ccc(-c2ccc3ncnc(Nc4ccc(OCc5cccc(F)c5)c(Cl)c4)c3c2)o1 [Lapatinib] (partner 2 µM)
Summary of the method: as §1

[2] = compound: C[C@@H](N)c1ccc(C(=O)Nc2ccnc3[nH]ccc23)cc1 + CCNC(=O)c1noc(-c2cc(C(C)C)c(O)cc2O)c1-c1ccc(CN2CCOCC2)cc1 [Luminespib] (partner 0.01 µM)
Summary of the method: as §1

Row | Cell Line | relative viability ([1]; first compound 0.04 µM) | relative viability ([1]; first compound 0.1265 µM) | relative viability ([1]; first compound 0.4 µM) | relative viability ([1]; first compound 1.265 µM) | relative viability ([1]; first compound 4 µM) | relative viability (Tanzisertib + Decitabine; first compound 0.08 µM) | relative viability (Tanzisertib + Decitabine; first compound 0.253 µM) | relative viability (Tanzisertib + Decitabine; first compound 0.8 µM) | relative viability (Tanzisertib + Decitabine; first compound 2.53 µM) | relative viability (Tanzisertib + Decitabine; first compound 8 µM) | relative viability (Tanzisertib + Lapatinib; first compound 0.08 µM) | relative viability (Tanzisertib + Lapatinib; first compound 0.253 µM) | relative viability (Tanzisertib + Lapatinib; first compound 0.8 µM) | relative viability (Tanzisertib + Lapatinib; first compound 2.53 µM) | relative viability (Tanzisertib + Lapatinib; first compound 8 µM) | relative viability ([2]; first compound 0.04 µM) | relative viability ([2]; first compound 0.1265 µM) | relative viability ([2]; first compound 0.4 µM) | relative viability ([2]; first compound 1.265 µM) | relative viability ([2]; first compound 4 µM)
1 | NCI-H1666 | 0.786 | 0.764 | 0.856 | 0.825 | 0.906 | 0.766 | 0.714 | 0.658 | 0.704 | 0.679 | 0.669 | 0.67 | 0.901 | 0.622 | 0.725 | 1.02 | 1.03 | 1.13 | 1.4 | 1.16
2 | NCI-H1734 | 0.642 | 0.591 | 0.652 | 0.559 | 0.45 | 0.492 | 0.492 | 0.399 | 0.52 | 0.441 | 1.15 | 1.13 | 0.952 | 1.16 | 1.08 | 0.2 | 0.209 | 0.193 | 0.187 | 0.195
3 | NCI-H1755 | 0.91 | 0.963 | 0.873 | 0.839 | 0.743 | 0.737 | 0.701 | 0.705 | 0.754 | 0.726 | 1.06 | 0.98 | 0.995 | 1.07 | 0.968 | 0.384 | 0.426 | 0.69 | 0.397 | 0.26
4 | NCI-H1792 | 0.419 | 0.523 | 0.564 | 0.383 | 0.319 | 0.668 | 0.539 | 0.487 | 0.569 | 0.566 | 1.01 | 0.967 | 0.867 | 0.825 | 0.798 | 0.407 |  | 0.568 | 0.45 | 0.448
5 | NCI-H1793 | 1.09 | 0.999 | 1.04 |  | 0.928 | 0.533 | 0.48 | 0.509 | 0.51 | 0.453 | 0.737 | 0.873 | 0.74 | 0.608 | 0.643 | 0.165 | 0.184 | 0.178 |  | 0.183
6 | NCI-H1915 |  | 0.229 | 0.26 |  | 0.216 | 0.288 | 0.275 | 0.264 | 0.257 | 0.279 | 0.994 | 1 | 0.897 | 1.02 | 0.947 | 0.825 | 0.817 | 0.869 |  | 0.629
7 | NCI-H1944 | 0.453 | 0.396 | 0.434 | 0.432 | 0.401 | 0.453 | 0.416 | 0.43 | 0.397 | 0.459 | 0.949 | 0.935 | 0.862 | 0.873 | 0.796 | 0.857 | 0.722 | 0.753 | 0.746 | 0.6
8 | NCI-H1975 | 0.771 | 0.757 | 0.78 | 0.67 | 0.523 | 0.406 | 0.41 | 0.295 | 0.373 | 0.39 | 1.06 | 0.944 | 0.87 | 0.942 | 0.912 | 0.211 | 0.26 | 0.114 | 0.181 | 0.146
9 | NCI-H1993 | 1.4 | 1.14 |  | 1.02 |  | 0.723 | 0.732 | 0.589 | 0.438 | 0.539 | 0.815 | 0.846 | 0.914 | 0.777 | 0.748 | 0.857 | 0.923 | 0.806 | 0.928 | 0.684
10 | NCI-H2009 | 0.657 | 0.666 | 0.611 | 0.595 | 0.547 | 0.366 | 0.437 | 0.387 | 0.355 | 0.377 | 1.12 | 0.983 | 0.847 | 1.05 | 0.296 | 0.966 | 0.957 | 0.952 | 0.836 | 0.815
11 | NCI-H2023 | 0.534 | 0.497 | 0.516 | 0.503 | 0.495 | 0.249 | 0.21 | 0.217 | 0.165 | 0.166 | 0.92 | 0.809 | 0.867 | 0.925 | 0.261 | 1 | 0.881 | 0.832 | 0.689 | 0.543
12 | NCI-H2085 | 0.762 | 0.726 | 0.667 | 0.706 | 0.619 |  | 0.603 | 0.583 | 0.54 | 0.549 | 0.794 | 0.726 | 0.818 | 0.83 | 0.755 | 0.453 | 0.41 | 0.405 | 0.386 | 0.38
13 | NCI-H2087 | 0.733 | 0.598 | 0.605 | 0.625 | 0.576 | 0.35 | 0.268 | 0.276 | 0.244 | 0.33 | 1.19 | 1.08 | 1.2 | 1.07 | 0.974 | 0.152 | 0.153 | 0.126 |  | 0.174
14 | NCI-H2126 | 0.945 | 0.946 | 0.915 | 0.988 | 0.948 | 0.558 | 0.586 | 0.574 | 0.592 | 0.658 | 0.772 | 0.807 | 0.82 | 0.694 | 0.724 | 1 | 0.951 | 1.01 | 1.01 | 0.806
15 | NCI-H2170 | 0.618 | 0.584 | 0.614 | 0.746 | 0.543 | 0.483 | 0.479 | 0.465 | 0.485 | 0.435 | 0.285 | 0.252 | 0.26 | 0.262 | 0.253 | 0.735 | 0.708 | 0.623 | 0.649 | 0.502
16 | NCI-H2347 | 0.53 | 0.579 | 0.534 | 0.566 | 0.461 | 0.634 | 0.657 | 0.701 | 0.635 | 0.648 | 1.05 | 1.01 | 0.971 | 1.07 | 0.869 | 0.469 | 0.308 | 0.784 |  | 0.795
17 | NCI-H2405 |  | 0.863 | 0.741 | 0.587 | 0.337 | 0.784 | 0.783 | 0.76 | 0.914 | 0.629 | 1.26 | 1.11 | 1.1 | 1.36 | 0.612 | 0.461 | 0.805 | 0.577 | 0.279 | 0.238
